Laboratory results as given in ChEMBL document CHEMBL3784916, “Synthesis and anticancer activity of novel fluorinated asiatic acid derivatives” (Eur J Med Chem, 2016).
pIC50: −log10 of the molar value. Calls of active or inactive are those of the source. No cut-off for these calls is given here.

Key:
HT-29 = experiment: Cytotoxicity against human HT-29 cells after 72 hrs by MTT assay; assay type: functional, cell-based; conditions: HT-29, 72 h
HeLa [1] = experiment: Cytotoxicity against human HeLa cells after 72 hrs by MTT assay; assay type: functional, cell-based
Jurkat = experiment: Cytotoxicity against human Jurkat cells after 72 hrs by XTT assay; assay type: functional, cell-based
[2] = (§1) Cytotoxicity against human PC3 cells after 72 hrs by MTT assay; assay type: functional, cell-based; conditions: PC-3, 72 h
PC-3 = experiment: as §1; assay type: functional, cell-based
MCF7 = experiment: Cytotoxicity against human MCF7 cells after 72 hrs by MTT assay; assay type: functional, cell-based
HeLa [3] = experiment: Downregulation of cyclin D3 level in human HeLa cells after 48 hrs by Western blot method; assay type: functional, cell-based
[4] = (§2) Cytotoxicity against human MIAPaCa2 cells after 72 hrs by MTT assay; assay type: functional, cell-based; conditions: MIA PaCa-2, 72 h
MIA PaCa-2 = experiment: as §2; assay type: functional, cell-based
A-375 = experiment: Cytotoxicity against human A375 cells after 72 hrs by MTT assay; assay type: functional, cell-based
BJ = experiment: Cytotoxicity against human BJ cells after 72 hrs by MTT assay; assay type: cell-based; conditions: Homo sapiens, BJ
HeLa [5] = experiment: Potency index, ratio of cisplatin IC50 to compound IC50 for human HeLa cells; assay type: functional
HeLa [6] = experiment: Induction of cell cycle arrest in human HeLa cells assessed as accumulation at G0/G1 phase at 1.34 uM after 24 hrs by propidium iodide staining-based flow cytometry (reference value: 51.41%); assay type: functional
HeLa [7] = experiment: Induction of cell cycle arrest in human HeLa cells assessed as accumulation at G0/G1 phase at 2.68 uM after 24 hrs by propidium iodide staining-based flow cytometry (reference value: 51.41%); assay type: functional
HeLa [8] = experiment: Induction of cell cycle arrest in human HeLa cells assessed as accumulation at S phase at 1.34 uM after 24 hrs by propidium iodide staining-based flow cytometry (reference value: 35.72%); assay type: functional
HeLa [9] = experiment: Induction of cell cycle arrest in human HeLa cells assessed as accumulation at S phase at 2.68 uM after 24 hrs by propidium iodide staining-based flow cytometry (reference value: 35.72%); assay type: functional
HeLa [10] = experiment: Induction of cell cycle arrest in human HeLa cells assessed as accumulation at G0/G1 phase at 1.34 uM after 48 hrs by propidium iodide staining-based flow cytometry (reference value: 54.05%); assay type: functional
HeLa [11] = experiment: Induction of cell cycle arrest in human HeLa cells assessed as accumulation at subG0/G1 phase at 2.68 uM after 48 hrs by propidium iodide staining-based flow cytometry; assay type: functional
HeLa [12] = experiment: Induction of apoptosis in human HeLa cells assessed as dead cells at 0.67 uM after 48 hrs by annexin V-FITC/propidium iodide staining-based flow cytometry ( Rvb = 0.067%); assay type: functional
HeLa [13] = experiment: Induction of apoptosis in human HeLa cells assessed as late apoptotic cells at 0.67 uM after 48 hrs by annexin V-FITC/propidium iodide staining-based flow cytometry ( Rvb = 1.28%); assay type: functional
HeLa [14] = experiment: Induction of apoptosis in human HeLa cells assessed as viable cells at 0.67 uM after 48 hrs by annexin V-FITC/propidium iodide staining-based flow cytometry ( Rvb = 95.4%); assay type: functional; conditions: read-out: Activity
HeLa [15] = experiment: Induction of apoptosis in human HeLa cells assessed as early apoptotic cells at 0.67 uM after 48 hrs by annexin V-FITC/propidium iodide staining-based flow cytometry ( Rvb = 3.24%); assay type: functional
HeLa [16] = experiment: Induction of apoptosis in human HeLa cells assessed as dead cells at 1.34 uM after 48 hrs by annexin V-FITC/propidium iodide staining-based flow cytometry ( Rvb = 0.067%); assay type: functional
HeLa [17] = experiment: Induction of apoptosis in human HeLa cells assessed as late apoptotic cells at 1.34 uM after 48 hrs by annexin V-FITC/propidium iodide staining-based flow cytometry ( Rvb = 1.28%); assay type: functional
HeLa [18] = experiment: Induction of apoptosis in human HeLa cells assessed as viable cells at 1.34 uM after 48 hrs by annexin V-FITC/propidium iodide staining-based flow cytometry ( Rvb = 95.4%); assay type: functional; conditions: read-out: Activity
HeLa [19] = experiment: Induction of apoptosis in human HeLa cells assessed as early apoptotic cells at 1.34 uM after 48 hrs by annexin V-FITC/propidium iodide staining-based flow cytometry ( Rvb = 3.24%); assay type: functional
HeLa [20] = experiment: Induction of apoptosis in human HeLa cells assessed as dead cells at 2.68 uM after 48 hrs by annexin V-FITC/propidium iodide staining-based flow cytometry ( Rvb = 0.067%); assay type: functional
HeLa [21] = experiment: Induction of apoptosis in human HeLa cells assessed as late apoptotic cells at 2.68 uM after 48 hrs by annexin V-FITC/propidium iodide staining-based flow cytometry ( Rvb = 1.28%); assay type: functional
HeLa [22] = experiment: Induction of apoptosis in human HeLa cells assessed as viable cells at 2.68 uM after 48 hrs by annexin V-FITC/propidium iodide staining-based flow cytometry ( Rvb = 95.4%); assay type: functional; conditions: read-out: Activity
HeLa [23] = experiment: Induction of apoptosis in human HeLa cells assessed as early apoptotic cells at 2.68 uM after 48 hrs by annexin V-FITC/propidium iodide staining-based flow cytometry ( Rvb = 3.24%); assay type: functional
HeLa [24] = experiment: Induction of apoptosis in human HeLa cells assessed as cell shrinkage at 0.67 to 1.34 uM after 48 hrs by Hoechst 33258 staining-based fluorescence microscopy; assay type: functional
HeLa [25] = experiment: Induction of apoptosis in human HeLa cells assessed as chromatin condensation at 0.67 to 1.34 uM after 48 hrs by Hoechst 33258 staining-based fluorescence microscopy; assay type: functional, cell-based
HeLa [26] = experiment: Induction of apoptosis in human HeLa cells assessed as reduction in adherent cells at 0.67 to 1.34 uM after 48 hrs by Hoechst 33258 staining-based fluorescence microscopy; assay type: functional, cell-based
HeLa [27] = experiment: Induction of apoptosis in human HeLa cells assessed as rupture of cell membrane at 2.68 uM after 48 hrs by Hoechst 33258 staining-based fluorescence microscopy; assay type: functional
HeLa [28] = experiment: Induction of apoptosis in human HeLa cells assessed as nuclear fragmentation at 2.68 uM after 48 hrs by Hoechst 33258 staining-based fluorescence microscopy; assay type: functional, cell-based
HeLa [29] = experiment: Upregulation of p21 cip1/waf1 level in human HeLa cells at 1.34 to 2.68 uM after 48 hrs by Western blot method; assay type: functional, cell-based
HeLa [30] = experiment: Upregulation of p27 kip1 level in human HeLa cells at 1.34 to 2.68 uM after 48 hrs by Western blot method; assay type: functional, cell-based
HeLa [31] = experiment: Downregulation of cyclin E level in human HeLa cells at 0.67 to 2.68 uM after 48 hrs by Western blot method; assay type: functional, cell-based
HeLa [32] = experiment: Induction of apoptosis in human HeLa cells assessed as increase in cleaved caspase-3 level at 2.68 uM after 48 hrs by Western blot method; assay type: functional, cell-based
HeLa [33] = experiment: Induction of apoptosis in human HeLa cells assessed as increase in cleaved caspase-8 level at 2.68 uM after 48 hrs by Western blot method; assay type: functional, cell-based
HeLa [34] = experiment: Induction of apoptosis in human HeLa cells assessed as increase in cleaved PARP level at 2.68 uM after 48 hrs by Western blot method; assay type: functional, cell-based
HeLa [35] = experiment: Induction of apoptosis in human HeLa cells assessed as increase in t-Bid level at 2.68 uM after 48 hrs by Western blot method; assay type: functional, cell-based
HeLa [36] = experiment: Induction of apoptosis in human HeLa cells assessed as upregulation of Bax level after 48 hrs by Western blot method; assay type: functional, cell-based
HeLa [37] = experiment: Induction of apoptosis in human HeLa cells assessed as downregulation of Bcl2 level after 48 hrs by Western blot method; assay type: functional, cell-based
HeLa [38] = experiment: Induction of apoptosis in human HeLa cells assessed as increase in Bax to Bcl2 ratio at 0.67 to 2.68 uM after 48 hrs by Western blot method; assay type: functional, cell-based
HeLa [39] = experiment: Potency index, ratio of asiatic acid IC50 to compound IC50 for human HeLa cells; assay type: functional

C[C@H]1[C@H](C)CC[C@@]23CC[C@]4(C)[C@](OC2=O)([C@H](F)C[C@@H]2[C@@]5(C)C(C=O)=C[C@@](C)(COC(=O)/C=C/c6ccccc6)[C@@H]5CC[C@]24C)[C@H]13
pIC50 (HT-29): 6.15 | pIC50 (HeLa [1]): 6.17 | Activity (Jurkat): Dose-dependent effect | pIC50 (Jurkat): 6.17 | pIC50 [2]: 6.13 | Activity (PC-3): Dose-dependent effect | Activity (MCF7): Dose-dependent effect | pIC50 (MCF7; MCF7, 72 h): 6.08 | Activity (HeLa [3]): Dose-dependent effect | pIC50 [4]: 5.95 | Activity (MIA PaCa-2): Dose-dependent effect | Activity (A-375): Dose-dependent effect | pIC50 (A-375; A-375, 72 h): 6.14 | pIC50 (BJ): 5.71 | Ratio IC50 (HeLa [5]): 3.5 | Activity (HeLa [6]): 67.26% | Activity (HeLa [7]): 72.72% | Activity (HeLa [8]): 22.55% | Activity (HeLa [9]): 11.05% | Activity (HeLa [10]): 76.03% | Activity (HeLa [11]): 11.39% | Activity (HeLa [12]): 0.193% | Activity (HeLa [13]): 1.23% | viability at 0.67 µM (HeLa [14]): 94.7% | Activity (HeLa [15]): 3.65% | Activity (HeLa [16]): 0.172% | Activity (HeLa [17]): 2.6% | viability at 1.34 µM (HeLa [18]): 92% | Activity (HeLa [19]): 5.25% | Activity (HeLa [20]): 2.86% | Activity (HeLa [21]): 22.6% | viability at 2.68 µM (HeLa [22]): 62.4% | Activity (HeLa [23]): 12.1% | Activity (HeLa [24]): Active | Activity (HeLa [25]): Active | Activity (HeLa [26]): Active | Activity (HeLa [27]): Active | Activity (HeLa [28]): Active | Activity (HeLa [29]): Active | Activity (HeLa [30]): Active | Activity (HeLa [31]): Active | Activity (HeLa [32]): Active | Activity (HeLa [33]): Active | Activity (HeLa [34]): Active | Activity (HeLa [35]): Active | Activity (HeLa [36]): Dose-dependent effect | Activity (HeLa [37]): Dose-dependent effect | Activity (HeLa [38]): Active | Ratio IC50 (HeLa [39]): 79
